Where a SMILES comes first, the peptide text is derived from it.
Experiments:
Conditions in all cases: 10°C
[1] = target: T1, N-SH2 domain of PI3K, T33S variant (Homo sapiens, UniProt P27986, T354S); experiment: Stopped-flow binding kinetics, N-SH2 T33S
T1 construct: made in house
Procedure: (§1) N-SH2 wild-type and all the site-directed variants were expressed and purified as described previously ([Visconti et al., 2019]). All the mutants were obtained using a QuickChange Lightning Site-Directed Mutagenesis kit (Agilent technologies), accordingly to manufacturer instructions. Peptides with sequence TNSEDNpYVPMNPG mimicking wild-type Gab2 and TNSEDNpYVPANPG mimicking the M457A variant of Gab2 were purchased from GenScript Biotech Corporation.
(§2) Binding kinetics experiments were performed using a single-mixing SX-18 stopped-flow instrument (Applied Photophysics); all binding experiments were conducted in 50 mM Hepes pH 7.4 300 mM NaCl at 10°C. Excitation was at 280 nm and emission was collected using a […] cut-off glass filter. Pseudo-first order binding experiments were performed mixing a constant concentration of dansylated Gab2_448–460 and Gab2_448–460 M457A (1 μM) vs. N-SH2 wt and its mutants at concentrations ranging from […]. For each N-SH2 concentration, usually 5 individual traces were averaged and in all cases the fluorescence time courses obtained was satisfactorily fitted by using a single exponential equation.
(§3) One of the aims of this study is to depict the molecular details of the interaction between the N-SH2 domain of PI3K and Gab2. A powerful strategy to achieve this goal relies on perturbing the system by producing conservative site-directed variants while monitoring the effect of mutations on the association and dissociation rate constants between the interacting partners (kon and koff respectively). Thus, we designed and successfully produced 21 site-directed variants of the N-SH2 domain and challenged them vs. a peptide mimicking the region of Gab2 ranging from residue 448–460 (Gab2_448–460), containing the pY-X-X-M motif that is specifically recognized by the N-SH2 domain ([Waksman et al., 1992]; [Songyang et al., 1993]). The choise of mutations was designed in analogy to phi-value analysis methodology in protein folding studies ([Fersht and Sato, 2004]). […] To monitor binding by fluorescence, a dansyl group was added at the N-terminus of the peptide. The binding reaction was monitored by stopped-flow experiments following the change in FRET signal, taking advantage of the two Trp residues on the N-SH2 domain in positions 12 and 14 as fluorescence donor and the dansyl group on Gab2_448–460 as acceptor. The experiments were performed in pseudo-first order conditions with Gab2_448–460 at fixed concentration of 1 μM rapidly mixed vs. large excess of N-SH2 wt and its variants, ranging from 4 to 14 μM, in buffer Hepes 50 mM, NaCl 300 mM, pH 7.4, at 10°C.
(§4) with kon being the slope of the line and koff the intercept with the y-axis. Since indirect calculation of koff obtained by extrapolation is associated with high experimental error, we performed displacement experiments to directly measure koff by challenging a pre-incubated complex of dansylated Gab2_448–460 and N-SH2 domain both at the concentration of 1 μM vs. a large excess of non-dansylated Gab2_448–460 (50 μM). Kinetic parameters extracted from data together with the calculated changes in activation and equilibrium free energies are reported in Table 1. Analysis of kinetic data highlights that T48S, L51A, and L59A variations cause a detectable decrease of the affinity of the domain for Gab2_448–460 of ∼10-fold, affecting both the kon and koff. […] Since L99 residue is part of the binding pocket, this dramatic effect on the binding affinity is expected.
(§5) SH2 domains bind ligands with a phosphorylated tyrosine in their sequence. The N-SH2 domain of PI3K is known to recognize a specific consensus sequences that present a methionine in position +3 in respect to the phosphotyrosine (M457 in Gab2). […]

[2] = target: T2, N-SH2 domain of PI3K, L75A variant (Homo sapiens, UniProt P27986, L396A); experiment: Stopped-flow binding kinetics, N-SH2 L75A
T2 construct: made in house
T2 sequence (P27986 333-428 L396A): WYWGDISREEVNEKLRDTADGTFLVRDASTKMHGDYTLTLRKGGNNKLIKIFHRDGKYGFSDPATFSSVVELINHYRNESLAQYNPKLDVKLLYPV
Procedure: as §1, §2, §3, §4, §5

[3] = target: T3, N-SH2 domain of PI3K, A30G variant (Homo sapiens, UniProt P27986, A351G); experiment: Stopped-flow binding kinetics, N-SH2 A30G
T3 construct: made in house
T3 sequence (P27986 333-428 A351G): as the sequence (P27986 333-428 L396A) above, with A19G, A64L counted along it
Procedure: as §1, §2, §3, §4, §5

[4] = target: T4, N-SH2 domain of PI3K, T29S variant (Homo sapiens, UniProt P27986, T350S); experiment: Stopped-flow binding kinetics, N-SH2 T29S
T4 construct: made in house
T4 sequence (P27986 333-428 T350S): as the sequence (P27986 333-428 L396A) above, with T18S, A64L counted along it
Procedure: as §1, §2, §3, §4, §5

[5] = target: T5, N-SH2 domain of PI3K, I60V variant (Homo sapiens, UniProt P27986, I381V); experiment: Stopped-flow binding kinetics, N-SH2 I60V
T5 construct: made in house
T5 sequence (P27986 333-428 I381V): as the sequence (P27986 333-428 L396A) above, with I49V, A64L counted along it
Procedure: as §1, §2, §3, §4, §5

[6] = target: T6, N-SH2 domain of PI3K, T76S variant (Homo sapiens, UniProt P27986, T397S); experiment: Stopped-flow binding kinetics, N-SH2 T76S
T6 construct: made in house
T6 sequence (P27986 333-428 T397S): as the sequence (P27986 333-428 L396A) above, with A64L, T65S counted along it
Procedure: as §1, §2, §3, §4, §5

[7] = target: T7, N-SH2 domain of PI3K, P74A variant (Homo sapiens, UniProt P27986, P395A); experiment: Stopped-flow binding kinetics, N-SH2 P74A
T7 construct: made in house
T7 sequence (P27986 333-428 P395A): as the sequence (P27986 333-428 L396A) above, with P63A, A64L counted along it
Procedure: as §1, §2, §3, §4, §5

[8] = target: T8, N-SH2 domain of PI3K, L51A variant (Homo sapiens, UniProt P27986, L372A); experiment: Stopped-flow binding kinetics, N-SH2 L51A
T8 construct: made in house
T8 sequence (P27986 333-428 L372A): as the sequence (P27986 333-428 L396A) above, with L40A, A64L counted along it
Procedure: as §1, §2, §3, §4, §5

[9] = target: T9, N-SH2 domain of PI3K, I62V variant (Homo sapiens, UniProt P27986, I383V); experiment: Stopped-flow binding kinetics, N-SH2 I62V
T9 construct: made in house
T9 sequence (P27986 333-428 I383V): as the sequence (P27986 333-428 L396A) above, with I51V, A64L counted along it
Procedure: as §1, §2, §3, §4, §5

[10] = target: T10, N-SH2 domain of PI3K, V81A variant (Homo sapiens, UniProt P27986, V402A); experiment: Stopped-flow binding kinetics, N-SH2 V81A
T10 construct: made in house
T10 sequence (P27986 333-428 V402A): as the sequence (P27986 333-428 L396A) above, with A64L, V70A counted along it
Procedure: as §1, §2, §3, §4, §5

[11] = target: T11, N-SH2 domain of PI3K, L104A variant (Homo sapiens, UniProt P27986, L425A); experiment: Stopped-flow binding kinetics, N-SH2 L104A
T11 construct: made in house
T11 sequence (P27986 333-428 L425A): as the sequence (P27986 333-428 L396A) above, with A64L, L93A counted along it
Procedure: as §1, §2, §3, §4, §5

[12] = target: T12, N-SH2 domain of PI3K, V22A variant (Homo sapiens, UniProt P27986, V343A); experiment: Stopped-flow binding kinetics, N-SH2 V22A
T12 construct: made in house
T12 sequence (P27986 333-428 V343A): as the sequence (P27986 333-428 L396A) above, with V11A, A64L counted along it
Procedure: as §1, §2, §3, §4, §5

N-SH2 domain of PI3K, WT = target: T13, N-SH2 domain of PI3K, WT (Homo sapiens, UniProt P27986); experiment: Stopped-flow binding kinetics, N-SH2 WT
T13 construct: made in house
T13 sequence (P27986 333-428 limits assumed): as the sequence (P27986 333-428 L396A) above, with A64L counted along it
Procedure: as §1, §2, §3, §4, §5

[13] = target: T14, N-SH2 domain of PI3K, I17V variant (Homo sapiens, UniProt P27986, I338V); experiment: Stopped-flow binding kinetics, N-SH2 I17V
T14 construct: made in house
T14 sequence (P27986 333-428 I338V): as the sequence (P27986 333-428 L396A) above, with I6V, A64L counted along it
Procedure: as §1, §2, §3, §4, §5

[14] = target: T15, N-SH2 domain of PI3K, V80A variant (Homo sapiens, UniProt P27986, V401A); experiment: Stopped-flow binding kinetics, N-SH2 V80A
T15 construct: made in house
T15 sequence (P27986 333-428 V401A): as the sequence (P27986 333-428 L396A) above, with A64L, V69A counted along it
Procedure: as §1, §2, §3, §4, §5

[15] = target: T16, N-SH2 domain of PI3K, T50S variant (Homo sapiens, UniProt P27986, T371S); experiment: Stopped-flow binding kinetics, N-SH2 T50S
T16 construct: made in house
T16 sequence (P27986 333-428 T371S): as the sequence (P27986 333-428 L396A) above, with T39S, A64L counted along it
Procedure: as §1, §2, §3, §4, §5

[16] = target: T17, N-SH2 domain of PI3K, V101A variant (Homo sapiens, UniProt P27986, V422A); experiment: Stopped-flow binding kinetics, N-SH2 V101A
T17 construct: made in house
T17 sequence (P27986 333-428 V422A): as the sequence (P27986 333-428 L396A) above, with A64L, V90A counted along it
Procedure: as §1, §2, §3, §4, §5

[17] = displacement experiment, pH 7.4, 300 mM NaCl
[18] = stopped-flow FRET, 1 μM dansylated peptide, 50 mM Hepes pH 7.4, 300 mM NaCl
[19] = stopped-flow kinetics, pH 7.4, 300 mM NaCl

T1 sequence (P27986 333-428 T354S): as the sequence (P27986 333-428 L396A) above, with T22S, A64L counted along it

For CC(C)[C@H](NC(=O)[C@H](Cc1ccc(OP(=O)(O)O)cc1)NC(=O)[C@H](CC(N)=O)NC(=O)[C@H](CC(=O)O)NC(=O)[C@H](CCC(=O)O)NC(=O)[C@H](CO)NC(=O)[C@H](CC(N)=O)NC(=O)[C@@H](N)[C@@H](C)O)C(=O)N1CCC[C@H]1C(=O)N[C@@H](C)C(=O)N[C@@H](CC(N)=O)C(=O)N1CCC[C@H]1C(=O)NCC(=O)O [Gab2_448–460 M457A] (HELM PEPTIDE1{T.N.S.E.D.N.[O=C([C@H](Cc1ccc(OP(=O)(O)O)cc1)N[*:1])[*:2]].V.P.A.N.P.G}$$$$V2.0), the koff [1, 17] was 80 ± 4 s⁻¹, the kon [1, 18] was 2.06e+07 ± 2.9e+06 M⁻¹ s⁻¹ and the Kd [1, 19] was 3.8 ± 0.6 µM. It also gave a koff [2, 17] of 110 ± 5 s⁻¹, a kon [2, 18] of 1.88e+07 ± 3.2e+06 M⁻¹ s⁻¹ and a Kd [2, 19] of 5.7 ± 1 µM. For the same compound, the koff [3, 17] was 90 ± 4 s⁻¹, the kon [3, 18] was 1.71e+07 ± 2.2e+06 M⁻¹ s⁻¹ and the Kd [3, 19] was 5.1 ± 0.7 µM. For the same compound, the koff [4, 17] was 80 ± 4 s⁻¹, the kon [4, 18] was 1.97e+07 ± 2.7e+06 M⁻¹ s⁻¹ and the Kd [4, 19] was 4 ± 0.6 µM. It also gave a koff [5, 17] of 80 ± 4 s⁻¹, a kon [5, 18] of 1.52e+07 ± 1.5e+06 M⁻¹ s⁻¹ and a Kd [5, 19] of 5 ± 0.6 µM. For the same compound, the koff [6, 17] was 100 ± 5 s⁻¹, the kon [6, 18] was 1.96e+07 ± 2.6e+06 M⁻¹ s⁻¹ and the Kd [6, 19] was 5 ± 0.7 µM. For the same compound, the koff [7, 17] was 60 ± 3 s⁻¹, the kon [7, 18] was 2.25e+07 ± 1.9e+06 M⁻¹ s⁻¹ and the Kd [7, 19] was 2.6 ± 0.3 µM. It also gave a koff [8, 17] of 160 ± 8 s⁻¹, a kon [8, 18] of 2.12e+07 ± 3.3e+06 M⁻¹ s⁻¹ and a Kd [8, 19] of 7.6 ± 1.2 µM. The koff [9, 17] was 120 ± 6 s⁻¹, the kon [9, 18] was 1.84e+07 ± 1.5e+06 M⁻¹ s⁻¹ and the Kd [9, 19] was 6.7 ± 0.6 µM. The koff [10, 17] was 90 ± 5 s⁻¹, the kon [10, 18] was 2.05e+07 ± 3.8e+06 M⁻¹ s⁻¹ and the Kd [10, 19] was 4.5 ± 0.9 µM. It also gave a koff [11, 17] of 110 ± 6 s⁻¹, a kon [11, 18] of 2.21e+07 ± 1.4e+06 M⁻¹ s⁻¹ and a Kd [11, 19] of 5.2 ± 0.4 µM. It also gave a koff [12, 17] of 170 ± 9 s⁻¹, a kon [12, 18] of 1.77e+07 ± 2.6e+06 M⁻¹ s⁻¹ and a Kd [12, 19] of 9.7 ± 1.5 µM. The koff (N-SH2 domain of PI3K, WT; displacement of 1 μM complex by 50 μM non-dansylated Gab2_448–460, 50 mM Hepes pH 7.4, 300 mM NaCl) was 80 ± 4 s⁻¹, the Kd (N-SH2 domain of PI3K, WT; from stopped-flow kinetics, pH 7.4, 300 mM NaCl) was 3.7 ± 0.4 µM and the kon (N-SH2 domain of PI3K, WT; stopped-flow FRET, 1 μM dansylated peptide vs excess N-SH2, 50 mM Hepes pH 7.4, 300 mM NaCl, slope of kobs) was 2.15e+07 ± 2.4e+06 M⁻¹ s⁻¹. The koff [13, 17] was 90 ± 5 s⁻¹, the kon [13, 18] was 2.2e+07 ± 2.3e+06 M⁻¹ s⁻¹ and the Kd [13, 19] was 4.3 ± 0.5 µM. For the same compound, the koff [14, 17] was 130 ± 6 s⁻¹, the kon [14, 18] was 2.23e+07 ± 5.4e+06 M⁻¹ s⁻¹ and the Kd [14, 19] was 5.6 ± 1.4 µM. For the same compound, the koff [15, 17] was 140 ± 7 s⁻¹, the kon [15, 18] was 2.02e+07 ± 2e+06 M⁻¹ s⁻¹ and the Kd [15, 19] was 6.8 ± 0.8 µM. It also gave a koff [16, 17] of 170 ± 9 s⁻¹, a kon [16, 18] of 1.42e+07 ± 1.7e+06 M⁻¹ s⁻¹ and a Kd [16, 19] of 12 ± 1 µM.

— paper PMC7247818, “Demonstration of Binding Induced Structural Plasticity in a SH2 Domain” (Frontiers in Molecular Biosciences, 2020)
